# Measured values published in ChEMBL document CHEMBL3616410, “Linked pyridinyl-thiadiazoles: Design and synthesis as potential candidate for treatment of XDR and MDR tuberculosis” (Eur J Med Chem, 2015).
# What was measured:
# [1] = system: Mycobacterium tuberculosis; assay: Bactericidal activity against Mycobacterium tuberculosis H37Rv ATCC 27294 after 5 days by spectrophotometry; format: functional
# [2] = system: Mycobacterium tuberculosis; assay: Antimycobacterial activity against Mycobacterium tuberculosis H37Rv ATCC 27294 after 5 days by spectrophotometry; format: functional; conditions: H37Rv ATCC 27294, 120 h
# [3] = Cytotoxicity against human HepG2 cells after 3 days; format: cell-based
# [4] = Cytotoxicity against hamster BHK21 cells after 3 days; format: cell-based, Mesocricetus auratus, BHK-21
# [5] = system: Mycobacterium tuberculosis; assay: Antimycobacterial activity against Mycobacterium tuberculosis TN675 after 5 days by spectrophotometry; format: functional; conditions: TN675, 120 h
# [6] = system: Mycobacterium tuberculosis; assay: Antimycobacterial activity against Mycobacterium tuberculosis TN913 after 5 days by spectrophotometry; format: functional; conditions: TN913, 120 h
# [7] = system: Mycobacterium tuberculosis; assay: Antimycobacterial activity against Mycobacterium tuberculosis TN994 after 5 days by spectrophotometry; format: functional; conditions: TN994, 120 h
# [8] = system: Mycobacterium tuberculosis; assay: Antimycobacterial activity against Mycobacterium tuberculosis TN1008 after 5 days by spectrophotometry; format: functional; conditions: TN1008, 120 h
# [9] = system: Mycobacterium tuberculosis; assay: Antimycobacterial activity against Mycobacterium tuberculosis TN1037 after 5 days by spectrophotometry; format: functional; conditions: TN1037, 120 h
# [10] = system: Mycobacterium tuberculosis; assay: Antimycobacterial activity against Mycobacterium tuberculosis TN1040 after 5 days by spectrophotometry; format: functional; conditions: TN1040, 120 h
# [11] = system: Mycobacterium tuberculosis; assay: Antimycobacterial activity against Mycobacterium tuberculosis TN1051 after 5 days by spectrophotometry; format: functional; conditions: TN1051, 120 h
# [12] = system: Mycobacterium tuberculosis; assay: Antimycobacterial activity against Mycobacterium tuberculosis TN1082 after 5 days by spectrophotometry; format: functional; conditions: TN1082, 120 h
# [13] = system: Mycobacterium tuberculosis; assay: Antimycobacterial activity against Mycobacterium tuberculosis TN2351 after 5 days by spectrophotometry; format: functional; conditions: TN2351, 120 h
# [14] = system: Mycobacterium tuberculosis; assay: Antimycobacterial activity against Mycobacterium tuberculosis TN2524 after 5 days by spectrophotometry; format: functional; conditions: TN2524, 120 h
# [15] = system: Mycobacterium tuberculosis; assay: Antimycobacterial activity against Mycobacterium tuberculosis TN3183 after 5 days by spectrophotometry; format: functional; conditions: TN3183, 120 h
# [16] = system: Mycobacterium tuberculosis; assay: Antimycobacterial activity against Mycobacterium tuberculosis TN3979 after 5 days by spectrophotometry; format: functional; conditions: TN3979, 120 h
# [17] = system: Mycobacterium tuberculosis; assay: Antimycobacterial activity against Mycobacterium tuberculosis TN4259 after 5 days by spectrophotometry; format: functional; conditions: TN4259, 120 h
# [18] = system: Mycobacterium tuberculosis; assay: Antimycobacterial activity against Mycobacterium tuberculosis AH9584 after 5 days by spectrophotometry; format: functional; conditions: AH9584, 120 h
# [19] = system: Mycobacterium tuberculosis; assay: Antimycobacterial activity against Mycobacterium tuberculosis BE11677 after 5 days by spectrophotometry; format: functional; conditions: BE11677, 120 h
# [20] = system: Mycobacterium tuberculosis; assay: Antimycobacterial activity against Mycobacterium tuberculosis E8133 after 5 days by spectrophotometry; format: functional; conditions: E8133, 120 h
# [21] = system: Mycobacterium tuberculosis; assay: Antimycobacterial activity against Mycobacterium tuberculosis W4 after 5 days by spectrophotometry; format: functional; conditions: W4, 120 h
Compound,MBC90 [1] [µM],MIC50 [2] [µM],CC50 at 72 h [3] [µM],CC50 at 72 h [4] [µM],other results
O=C(CCSc1nnc(-c2ccncc2)s1)Nc1c(Cl)cccc1Cl,2.5,0.59,12.6,10.3,–
CC(Sc1nnc(-c2ccncc2)s1)C(=O)Nc1ccccc1 (stereo unspecified),5,1.48,> 50,> 50,–
CC(Sc1nnc(-c2ccncc2)s1)C(=O)NCc1ccccc1Cl (stereo unspecified),5,1.26,> 50,> 50,–
O=C(CSc1nnc(-c2ccncc2)s1)Nc1c(Cl)cccc1Cl,–,> 20,–,–,–
O=C(CSc1nnc(-c2ccncc2)s1)Nc1ccc(Cl)cc1,–,6.81,> 50,> 50,–
O=C(CSc1nnc(-c2ccncc2)s1)NCc1ccccc1,1.25,0.19,17.7,11.3,–
O=C(CSc1nnc(-c2ccncc2)s1)Nc1ccc(Cl)cc1Cl,–,> 20,–,–,–
O=C(CSc1nnc(-c2ccncc2)s1)Nc1ccccc1,1.25,0.18,15.2,16.2,–
CC(Sc1nnc(-c2ccncc2)s1)C(=O)Nc1ccc(Cl)cc1Cl (stereo unspecified),5,2.45,> 50,> 50,–
NNC(=O)c1ccncc1 [ISONIAZID],–,0.03,–,–,MIC [2]: 0.03 µg/mL; MIC [5]: 0.03 µg/mL; MIC [6]: 0.03 µg/mL; MIC [7]: 0.03 µg/mL; MIC [8]: 0.06 µg/mL; MIC [9]: 0.03 µg/mL; MIC [10]: 0.03 µg/mL; MIC [11]: 0.03 µg/mL; MIC [12]: 0.03 µg/mL; MIC [13]: 0.06 µg/mL; MIC [14]: 0.06 µg/mL; MIC [15]: 0.03 µg/mL; MIC [16]: 0.06 µg/mL; MIC [17]: 0.03 µg/mL; MIC [18]: 0.19 µg/mL; MIC [19]: 0.2 µg/mL; MIC [20]: 0.08 µg/mL; MIC [21]: 0.03 µg/mL
O=C(CCSc1nnc(-c2ccncc2)s1)Nc1ccccc1,2.5,0.61,> 50,> 50,–
CC(Sc1nnc(-c2ccncc2)s1)C(=O)NCc1ccccc1 (stereo unspecified),5,1.15,> 50,> 50,–
CC(CSc1nnc(-c2ccncc2)s1)C(=O)Nc1ccc(Cl)cc1 (stereo unspecified),1.25,0.22,> 50,> 50,–
CC(Sc1nnc(-c2ccncc2)s1)C(=O)Nc1ccccc1Cl (stereo unspecified),5,1.04,> 50,> 50,–
S=c1[nH]nc(-c2ccncc2)s1,1.25,0.2,19.7,14.7,–
O=C(CSc1nnc(-c2ccncc2)s1)Nc1ccccc1Cl,–,8.52,> 50,> 50,–
CC(CSc1nnc(-c2ccncc2)s1)C(=O)Nc1ccccc1 (stereo unspecified),5,2.26,> 50,> 50,–

Compound,MBC90 [1] [µM],MIC50 [2] [µM],CC50 at 72 h [3] [µM],CC50 at 72 h [4] [µM],other results
O=C(CCSc1nnc(-c2ccncc2)s1)NCc1ccccc1Cl,2.5,0.65,> 50,> 50,–
CC(Sc1nnc(-c2ccncc2)s1)C(=O)NCc1ccc(Cl)cc1 (stereo unspecified),–,> 20,–,–,–
O=C(CCSc1nnc(-c2ccncc2)s1)NCc1ccc(Cl)cc1,2.5,0.63,15.6,21.5,–
CC(Sc1nnc(-c2ccncc2)s1)C(=O)Nc1c(Cl)cccc1Cl (stereo unspecified),5,1.19,> 50,> 50,–
O=C(CSc1nnc(-c2ccncc2)s1)NCc1ccc(Cl)cc1,–,11.7,> 50,> 50,–
O=C(CCSc1nnc(-c2ccncc2)s1)Nc1ccccc1Cl,2.5,0.62,> 50,> 50,–
CC(CSc1nnc(-c2ccncc2)s1)C(=O)Nc1ccc(Cl)cc1Cl (stereo unspecified),5,1.48,> 50,> 50,–
CC(CSc1nnc(-c2ccncc2)s1)C(=O)NCc1ccccc1 (stereo unspecified),5,2.51,> 50,> 50,–
O=C(CSc1nnc(-c2ccncc2)s1)NCc1ccccc1Cl,–,9.67,–,–,–
CC(CSc1nnc(-c2ccncc2)s1)C(=O)NCc1ccccc1Cl (stereo unspecified),5,1.89,> 50,> 50,–
O=C(CCSc1nnc(-c2ccncc2)s1)Nc1ccc(Cl)cc1Cl,2.5,0.55,> 50,> 50,–
O=C(CCSc1nnc(-c2ccncc2)s1)Nc1ccc(Cl)cc1,1.25,0.07,7.26,8.21,MIC [2]: 0.015 µg/mL; MIC [5]: 0.013 µg/mL; MIC [6]: 0.013 µg/mL; MIC [7]: 0.03 µg/mL; MIC [8]: 0.06 µg/mL; MIC [9]: 0.06 µg/mL; MIC [10]: 0.03 µg/mL; MIC [11]: 0.06 µg/mL; MIC [12]: 0.06 µg/mL; MIC [13]: 0.25 µg/mL; MIC [14]: 0.25 µg/mL; MIC [15]: 0.06 µg/mL; MIC [16]: 0.13 µg/mL; MIC [17]: 0.06 µg/mL; MIC [18]: 0.25 µg/mL; MIC [19]: 0.25 µg/mL; MIC [20]: 0.13 µg/mL; MIC [21]: 0.06 µg/mL
O=C(CCSc1nnc(-c2ccncc2)s1)NCc1ccccc1,2.5,0.67,14,18.7,–
CC(CSc1nnc(-c2ccncc2)s1)C(=O)NCc1ccc(Cl)cc1 (stereo unspecified),–,1.68,–,–,–
CC(Sc1nnc(-c2ccncc2)s1)C(=O)Nc1ccc(Cl)cc1 (stereo unspecified),1.25,0.12,> 50,> 50,–
CC(CSc1nnc(-c2ccncc2)s1)C(=O)Nc1c(Cl)cccc1Cl (stereo unspecified),5,1.55,> 50,> 50,–
CC(CSc1nnc(-c2ccncc2)s1)C(=O)Nc1ccccc1Cl (stereo unspecified),5,2.05,> 50,> 50,–
